Assay results as given in patent US7101849B1 (The University of Queensland, priority 1998, dated 2006).

Columns and labels:
N-type calcium channel = N-type calcium channel (Rattus norvegicus, UniProt Q02294); type: binding
N-type calcium channels = N-type calcium channels (Homo sapiens, UniProt Q00975); conditions: cited from earlier work
P/Q-type channels = P/Q-type channels (Homo sapiens, UniProt O00555); conditions: cited from earlier work
peripheral channels = conditions: in vivo; cited from earlier work

Chain of N-type calcium channel (Q02294 whole entry, looked up): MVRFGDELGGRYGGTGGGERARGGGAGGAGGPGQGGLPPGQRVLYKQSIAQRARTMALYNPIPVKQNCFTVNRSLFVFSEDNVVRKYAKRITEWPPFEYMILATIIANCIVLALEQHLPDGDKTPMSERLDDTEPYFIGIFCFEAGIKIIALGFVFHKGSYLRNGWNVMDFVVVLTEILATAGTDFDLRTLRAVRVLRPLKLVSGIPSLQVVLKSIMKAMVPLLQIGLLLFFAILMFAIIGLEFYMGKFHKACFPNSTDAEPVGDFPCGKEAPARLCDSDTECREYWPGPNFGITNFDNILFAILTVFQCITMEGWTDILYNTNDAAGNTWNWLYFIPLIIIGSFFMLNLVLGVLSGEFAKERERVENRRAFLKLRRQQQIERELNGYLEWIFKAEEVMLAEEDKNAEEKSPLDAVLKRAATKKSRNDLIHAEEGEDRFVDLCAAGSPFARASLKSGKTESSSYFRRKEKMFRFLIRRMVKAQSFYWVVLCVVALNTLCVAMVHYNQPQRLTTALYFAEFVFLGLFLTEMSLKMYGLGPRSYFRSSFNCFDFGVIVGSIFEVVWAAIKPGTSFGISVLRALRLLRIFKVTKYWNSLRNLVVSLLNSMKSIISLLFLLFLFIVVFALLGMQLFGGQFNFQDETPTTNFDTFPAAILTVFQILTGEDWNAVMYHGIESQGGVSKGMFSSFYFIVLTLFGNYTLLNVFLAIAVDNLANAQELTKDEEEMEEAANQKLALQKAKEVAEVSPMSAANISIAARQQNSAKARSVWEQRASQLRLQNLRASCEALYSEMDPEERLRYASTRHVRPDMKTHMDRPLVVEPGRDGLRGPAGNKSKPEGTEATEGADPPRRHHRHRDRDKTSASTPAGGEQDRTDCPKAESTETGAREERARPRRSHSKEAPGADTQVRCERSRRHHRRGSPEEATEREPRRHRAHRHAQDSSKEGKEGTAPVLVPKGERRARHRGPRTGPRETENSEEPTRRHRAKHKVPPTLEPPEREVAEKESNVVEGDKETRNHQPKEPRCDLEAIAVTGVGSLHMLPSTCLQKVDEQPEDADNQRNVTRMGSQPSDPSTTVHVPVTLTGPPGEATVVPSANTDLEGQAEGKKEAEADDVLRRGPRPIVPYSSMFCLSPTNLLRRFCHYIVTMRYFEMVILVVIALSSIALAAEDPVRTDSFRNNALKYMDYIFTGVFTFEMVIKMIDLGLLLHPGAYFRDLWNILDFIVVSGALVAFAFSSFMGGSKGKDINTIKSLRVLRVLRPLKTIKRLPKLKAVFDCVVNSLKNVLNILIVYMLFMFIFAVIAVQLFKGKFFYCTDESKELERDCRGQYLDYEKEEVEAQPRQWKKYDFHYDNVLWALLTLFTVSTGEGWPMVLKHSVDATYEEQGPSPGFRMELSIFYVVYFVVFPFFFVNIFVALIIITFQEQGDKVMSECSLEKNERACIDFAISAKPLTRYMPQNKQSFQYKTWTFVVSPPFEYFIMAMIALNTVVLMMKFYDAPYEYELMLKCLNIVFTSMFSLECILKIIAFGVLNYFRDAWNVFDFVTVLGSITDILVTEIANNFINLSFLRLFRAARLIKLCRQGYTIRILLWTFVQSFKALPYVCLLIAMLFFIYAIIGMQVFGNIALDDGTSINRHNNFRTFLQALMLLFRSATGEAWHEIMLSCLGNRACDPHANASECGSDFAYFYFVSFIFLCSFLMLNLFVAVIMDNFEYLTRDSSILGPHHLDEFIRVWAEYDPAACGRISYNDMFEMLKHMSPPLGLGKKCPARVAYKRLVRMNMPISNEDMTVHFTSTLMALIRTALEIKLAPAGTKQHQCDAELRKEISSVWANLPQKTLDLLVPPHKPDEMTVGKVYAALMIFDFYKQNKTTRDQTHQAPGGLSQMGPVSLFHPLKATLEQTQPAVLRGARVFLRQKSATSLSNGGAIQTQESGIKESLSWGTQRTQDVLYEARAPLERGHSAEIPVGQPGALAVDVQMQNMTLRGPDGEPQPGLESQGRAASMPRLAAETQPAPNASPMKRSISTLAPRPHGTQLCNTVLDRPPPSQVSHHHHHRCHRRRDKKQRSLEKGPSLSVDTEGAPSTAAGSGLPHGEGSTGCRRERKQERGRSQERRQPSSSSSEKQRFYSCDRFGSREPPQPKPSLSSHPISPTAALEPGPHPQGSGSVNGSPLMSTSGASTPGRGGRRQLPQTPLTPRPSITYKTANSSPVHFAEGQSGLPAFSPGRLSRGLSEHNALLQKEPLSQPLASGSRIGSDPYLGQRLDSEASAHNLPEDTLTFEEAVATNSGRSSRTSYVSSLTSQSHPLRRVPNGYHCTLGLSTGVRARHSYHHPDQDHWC
Chain of N-type calcium channels (Q00975 whole entry, looked up): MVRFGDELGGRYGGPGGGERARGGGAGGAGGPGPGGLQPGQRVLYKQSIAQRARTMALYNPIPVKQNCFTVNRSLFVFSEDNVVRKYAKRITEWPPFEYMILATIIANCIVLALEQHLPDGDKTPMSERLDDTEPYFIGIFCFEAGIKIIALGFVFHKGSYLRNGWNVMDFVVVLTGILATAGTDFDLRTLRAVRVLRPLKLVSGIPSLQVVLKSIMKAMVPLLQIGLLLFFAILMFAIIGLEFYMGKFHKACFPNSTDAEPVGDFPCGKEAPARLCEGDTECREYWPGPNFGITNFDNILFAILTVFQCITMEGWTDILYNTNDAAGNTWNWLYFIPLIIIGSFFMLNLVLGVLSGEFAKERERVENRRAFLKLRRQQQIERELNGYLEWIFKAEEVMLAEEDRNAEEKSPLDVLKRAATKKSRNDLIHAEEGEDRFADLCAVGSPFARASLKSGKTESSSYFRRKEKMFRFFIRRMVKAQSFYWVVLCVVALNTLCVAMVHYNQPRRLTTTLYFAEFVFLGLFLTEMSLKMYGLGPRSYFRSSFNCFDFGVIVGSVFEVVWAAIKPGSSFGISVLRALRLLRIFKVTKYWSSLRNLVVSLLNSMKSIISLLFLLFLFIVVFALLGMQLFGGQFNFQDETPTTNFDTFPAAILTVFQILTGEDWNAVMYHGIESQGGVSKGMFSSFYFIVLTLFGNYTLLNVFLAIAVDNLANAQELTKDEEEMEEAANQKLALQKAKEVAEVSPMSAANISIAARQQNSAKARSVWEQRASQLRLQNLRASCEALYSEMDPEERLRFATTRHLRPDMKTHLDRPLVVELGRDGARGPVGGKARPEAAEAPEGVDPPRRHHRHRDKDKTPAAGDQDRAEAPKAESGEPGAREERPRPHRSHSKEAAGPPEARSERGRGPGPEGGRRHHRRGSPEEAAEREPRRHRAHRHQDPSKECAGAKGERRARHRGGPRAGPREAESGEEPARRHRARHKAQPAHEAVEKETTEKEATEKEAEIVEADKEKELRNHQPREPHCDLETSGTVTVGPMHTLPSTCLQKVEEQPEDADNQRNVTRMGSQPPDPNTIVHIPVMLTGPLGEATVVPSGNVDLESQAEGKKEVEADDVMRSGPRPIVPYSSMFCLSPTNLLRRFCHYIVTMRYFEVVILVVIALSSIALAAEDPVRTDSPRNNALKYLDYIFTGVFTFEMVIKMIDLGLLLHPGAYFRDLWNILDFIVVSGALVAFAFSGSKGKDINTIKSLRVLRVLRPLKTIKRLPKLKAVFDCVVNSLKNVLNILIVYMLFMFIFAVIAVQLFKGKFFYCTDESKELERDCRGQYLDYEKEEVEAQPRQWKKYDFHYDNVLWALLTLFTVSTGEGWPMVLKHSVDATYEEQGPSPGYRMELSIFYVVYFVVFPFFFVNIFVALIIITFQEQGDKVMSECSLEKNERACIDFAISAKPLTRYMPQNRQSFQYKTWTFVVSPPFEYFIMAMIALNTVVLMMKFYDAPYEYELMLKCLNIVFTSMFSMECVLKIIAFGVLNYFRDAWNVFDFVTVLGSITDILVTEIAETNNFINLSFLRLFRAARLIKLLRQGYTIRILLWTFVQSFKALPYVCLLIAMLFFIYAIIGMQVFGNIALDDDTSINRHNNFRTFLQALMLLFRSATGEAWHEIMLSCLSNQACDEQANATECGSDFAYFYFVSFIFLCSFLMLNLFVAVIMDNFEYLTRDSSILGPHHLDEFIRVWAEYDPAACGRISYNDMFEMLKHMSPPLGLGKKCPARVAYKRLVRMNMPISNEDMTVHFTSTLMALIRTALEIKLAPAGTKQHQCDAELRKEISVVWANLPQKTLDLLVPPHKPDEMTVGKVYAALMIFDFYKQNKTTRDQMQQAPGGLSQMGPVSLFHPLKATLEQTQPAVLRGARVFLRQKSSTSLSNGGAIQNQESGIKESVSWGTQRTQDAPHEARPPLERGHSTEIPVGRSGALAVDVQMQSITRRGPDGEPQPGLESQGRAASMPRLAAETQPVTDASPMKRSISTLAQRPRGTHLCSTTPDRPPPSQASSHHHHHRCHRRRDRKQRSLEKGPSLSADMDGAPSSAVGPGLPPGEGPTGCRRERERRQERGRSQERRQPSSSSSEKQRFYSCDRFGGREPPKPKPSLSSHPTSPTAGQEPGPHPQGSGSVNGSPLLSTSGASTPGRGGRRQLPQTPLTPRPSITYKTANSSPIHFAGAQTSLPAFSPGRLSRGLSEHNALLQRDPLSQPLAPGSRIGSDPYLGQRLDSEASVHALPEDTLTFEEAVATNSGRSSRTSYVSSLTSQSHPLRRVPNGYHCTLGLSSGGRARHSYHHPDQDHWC

| Compound | potency for N-type calcium channel in receptor binding assays (N-type calcium channel) | selectivity for N-type calcium channel over P/Q-type calcium channel in receptor binding assays (N-type calcium channel) | affinity / selectivity for N-type calcium channels (N-type calcium channels) | other results |
| --- | --- | --- | --- | --- |
| CKSKGAKCSKLMYDCCSGSCSGTVGRC [CVID] | high potency | high selectivity |  |  |
| CKSOGSSCSOTSYNCCRSCNOYTKRCY [GVIA] |  |  | high level of selectivity | antagonism of N-type calcium channels (N-type calcium channels): potent antagonist; reversibility of binding to N-type calcium channels (N-type calcium channels): irreversible |
| CKGKOAPCRKTMYDCCSGSCGRRGKC [MVIIC] |  |  | low affinity | binding to P/Q-type channels (P/Q-type channels): bind strongly |
| CSCC[C@@H]1NC(=O)[C@H](CC(C)C)NC(=O)[C@H](CCCNC(=N)N)NC(=O)[C@H](CO)NC(=O)[C@@H]2CSSC[C@@H]3NC(=O)[C@H](CO)NC(=O)CNC(=O)[C@H]([C@@H](C)O)NC(=O)[C@H](CSSC[C@H](N)C(=O)N[C@@H](CCCCN)C(=O)NCC(=O)N[C@@H](CCCCN)C(=O)NCC(=O)N[C@@H](C)C(=O)N[C@@H](CCCCN)C(=O)N2)NC(=O)[C@H](CSSC[C@@H](C(N)=O)NC(=O)[C@H](CCCCN)NC(=O)CNC(=O)[C@H](CO)NC(=O)[C@H](CCCNC(=N)N)NC3=O)NC(=O)[C@H](CC(=O)O)NC(=O)[C@H](Cc2ccc(O)cc2)NC1=O [SNX-111] |  |  |  | hypotension (peripheral channels): cause hypotension |
| CKSKGAKCSRLMYDCCSGSCSGTVGRC [R^10-CVID] | high potency | high selectivity |  |  |
